Where two headings read alike, the source gives them in different places.
How the values were obtained:
Test in all cases: Test F pre-/postemergence plant response
Assay type in all cases: in vivo
[1] = system: palmer pigweed (Amaranthus palmeri); conditions: Amaranthus palmeri, scale 0 to 100, read-out: Plant response rating, Pigweed, Palmer
Method in brief: (§1)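 Seeds were sown in silt loam soil and sprayed preemergence; separately, plants at the 1- to 4-leaf stage (2 to 18 cm) received postemergence sprays. Test chemicals were in a non-phytotoxic solvent mixture with surfactant. After 14 to 21 days in a greenhouse, injury was visually rated 0 (no effect) to 100 (complete control) against untreated controls.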

[2] = system: goosegrass (Eleusine indica); conditions: Eleusine indica, pre-emergence, scale 0 to 100, read-out: Plant response rating, Goosegrass
Method in brief: as §1

[3] = system: corn (Zea mays); conditions: Zea mays, scale 0 to 100
Method in brief: as §1

[4] = system: field bindweed (Convolvulus arvensis); conditions: Convolvulus arvensis, scale 0 to 100, read-out: Plant response rating, Field Bindweed
Method in brief: as §1

[5] = system: fall panicum (Panicum dichotomiflorum); conditions: Panicum dichotomiflorum, scale 0 to 100, read-out: Plant response rating, Panicum, Fall
Method in brief: as §1

[6] = system: kochia (Kochia scoparia); conditions: Bassia scoparia, pre-emergence, scale 0 to 100, read-out: Plant response rating, Kochia
Method in brief: as §1

[7] = system: giant foxtail (Setaria faberii); conditions: Setaria faberi, pre-emergence, scale 0 to 100, read-out: Plant response rating, Foxtail, Giant
Method in brief: as §1

[8] = system: arrowleaf sida (Sida rhombifolia); conditions: Sida rhombifolia, scale 0 to 100, read-out: Plant response rating, Arrowleaf Sida
Method in brief: as §1

[9] = system: surinam grass (Brachiaria decumbens); conditions: Urochloa decumbens, pre-emergence, scale 0 to 100, read-out: Plant response rating, Surinam Grass
Method in brief: as §1

[10] = system: soybean (Glycine max); conditions: Glycine max, scale 0 to 100, read-out: Plant response rating, Soybean
Method in brief: as §1

[11] = system: velvetleaf (Abutilon theophrasti); conditions: Abutilon theophrasti, pre-emergence, scale 0 to 100, read-out: Plant response rating, Velvetleaf
Method in brief: as §1

[12] = post-emergence, 8 g ai/ha Postemergence
[13] = post-emergence, 16 g ai/ha Postemergence
[14] = post-emergence, 31 g ai/ha Postemergence
[15] = post-emergence, 62 g ai/ha Postemergence
[16] = post-emergence, 125 g ai/ha Postemergence
[17] = pre-emergence, 8 g ai/ha Preemergence
[18] = pre-emergence, 16 g ai/ha Preemergence
[19] = pre-emergence, 31 g ai/ha Preemergence
[20] = pre-emergence, 125 g ai/ha Preemergence
[21] = pre-emergence, 62 g ai/ha Preemergence

Structure (SMILES): FC(F)(F)c1cc(-c2ccccc2Oc2ncc(Cl)cn2)no1 [Compound 200, 5-chloro-2-[2-[5-(trifluoromethyl)-3-isoxazolyl]phenoxy]pyrimidine]
- pest or weed control at 8 g/ha [1, 12]: 85%
- pest or weed control at 16 g/ha [1, 13]: 95%
- pest or weed control at 31 g/ha [1, 14]: 98%
- pest or weed control at 62 g/ha [1, 15]: 100%
- pest or weed control at 125 g/ha [1, 16]: 100%
- pest or weed control at 8 g/ha [1, 17]: 0%
- pest or weed control at 16 g/ha [1, 18]: 85%
- pest or weed control at 31 g/ha [1, 19]: 100%
- pest or weed control at 125 g/ha [1, 20]: 100%
- pest or weed control at 62 g/ha ([1]; pre-emergence, Preemergence): 100%
- pest or weed control at 8 g/ha ([2]; 8 g ai/ha Preemergence): 10%
- pest or weed control at 16 g/ha ([2]; 16 g ai/ha Preemergence): 70%
- pest or weed control at 31 g/ha ([2]; 31 g ai/ha Preemergence): 80%
- pest or weed control at 125 g/ha ([2]; 125 g ai/ha Preemergence): 98%
- pest or weed control at 62 g/ha ([2]; Preemergence): 95%
- Corn plant response rating (crop injury, 0 = no effect, 100 = complete kill) at 8 g/ha [3, 12]: 0%
- Corn plant response rating (crop injury, 0 = no effect, 100 = complete kill) at 16 g/ha [3, 13]: 0%
- Corn plant response rating (crop injury, 0 = no effect, 100 = complete kill) at 31 g/ha [3, 14]: 10%
- Corn plant response rating (crop injury, 0 = no effect, 100 = complete kill) at 62 g/ha [3, 15]: 20%
- Corn plant response rating (crop injury, 0 = no effect, 100 = complete kill) at 125 g/ha [3, 16]: 25%
- Corn plant response rating (crop injury, 0 = no effect, 100 = complete kill) at 8 g/ha [3, 17]: 0%
- Corn plant response rating (crop injury, 0 = no effect, 100 = complete kill) at 16 g/ha [3, 18]: 0%
- Corn plant response rating (crop injury, 0 = no effect, 100 = complete kill) at 31 g/ha [3, 19]: 0%
- Corn plant response rating (crop injury, 0 = no effect, 100 = complete kill) at 62 g/ha [3, 21]: 0%
- Corn plant response rating (crop injury, 0 = no effect, 100 = complete kill) at 125 g/ha [3, 20]: 0%
- pest or weed control at 8 g/ha [4, 12]: 20%
- pest or weed control at 16 g/ha [4, 13]: 20%
- pest or weed control at 31 g/ha [4, 14]: 35%
- pest or weed control at 62 g/ha [4, 15]: 35%
- pest or weed control at 125 g/ha [4, 16]: 35%
- pest or weed control at 8 g/ha [4, 17]: 0%
- pest or weed control at 16 g/ha [4, 18]: 0%
- pest or weed control at 31 g/ha [4, 19]: 30%
- pest or weed control at 62 g/ha [4, 21]: 30%
- pest or weed control at 125 g/ha [4, 20]: 30%
- pest or weed control at 8 g/ha [5, 12]: 5%
- pest or weed control at 16 g/ha [5, 13]: 5%
- pest or weed control at 31 g/ha [5, 14]: 5%
- pest or weed control at 62 g/ha [5, 15]: 5%
- pest or weed control at 125 g/ha [5, 16]: 15%
- pest or weed control at 8 g/ha [5, 17]: 0%
- pest or weed control at 16 g/ha [5, 18]: 70%
- pest or weed control at 31 g/ha [5, 19]: 35%
- pest or weed control at 125 g/ha [5, 20]: 100%
- pest or weed control at 62 g/ha ([5]; pre-emergence, Preemergence): 98%
- pest or weed control at 8 g/ha ([6]; 8 g ai/ha Preemergence): 20%
- pest or weed control at 16 g/ha ([6]; 16 g ai/ha, Preemergence): 25%
- pest or weed control at 31 g/ha ([6]; 31 g ai/ha, Preemergence): 50%
- pest or weed control at 125 g/ha ([6]; 125 g ai/ha, Preemergence): 100%
- pest or weed control at 62 g/ha ([6]; Preemergence): 80%
- pest or weed control at 8 g/ha ([7]; 8 g ai/ha Preemergence): 0%
- pest or weed control at 16 g/ha ([7]; 16 g ai/ha Preemergence): 35%
- pest or weed control at 31 g/ha ([7]; 31 g ai/ha Preemergence): 65%
- pest or weed control at 62 g/ha ([7]; 62 g ai/ha Preemergence): 100%
- pest or weed control at 125 g/ha ([7]; 125 g ai/ha Preemergence): 100%
- pest or weed control at 8 g/ha [8, 12]: 65%
- pest or weed control at 16 g/ha [8, 13]: 75%
- pest or weed control at 31 g/ha [8, 14]: 85%
- pest or weed control at 62 g/ha [8, 15]: 95%
- pest or weed control at 125 g/ha [8, 16]: 95%
- pest or weed control at 8 g/ha [8, 17]: 0%
- pest or weed control at 16 g/ha [8, 18]: 65%
- pest or weed control at 31 g/ha [8, 19]: 100%
- pest or weed control at 62 g/ha [8, 21]: 100%
- pest or weed control at 125 g/ha [8, 20]: 100%
- pest or weed control at 8 g/ha ([9]; 8 g ai/ha Preemergence): 0%
- pest or weed control at 16 g/ha ([9]; 16 g ai/ha Preemergence): 0%
- pest or weed control at 31 g/ha ([9]; 31 g ai/ha Preemergence): 0%
- pest or weed control at 125 g/ha ([9]; 125 g ai/ha Preemergence): 35%
- pest or weed control at 62 g/ha ([9]; Preemergence): 10%
- plant injury at 8 g/ha [10, 12]: 15%
- plant injury at 16 g/ha [10, 13]: 20%
- plant injury at 31 g/ha [10, 14]: 40%
- plant injury at 62 g/ha [10, 15]: 65%
- plant injury at 125 g/ha [10, 16]: 90%
- plant injury at 8 g/ha [10, 17]: 0%
- plant injury at 16 g/ha [10, 18]: 0%
- plant injury at 31 g/ha [10, 19]: 20%
- plant injury at 125 g/ha [10, 20]: 50%
- plant injury at 62 g/ha ([10]; pre-emergence, Preemergence): 30%
- pest or weed control at 8 g/ha ([11]; 8 g ai/ha Preemergence): 0%
- pest or weed control at 16 g/ha ([11]; 16 g ai/ha Preemergence): 25%
- pest or weed control at 31 g/ha ([11]; 31 g ai/ha Preemergence): 80%
- pest or weed control at 125 g/ha ([11]; 125 g ai/ha Preemergence): 100%
- pest or weed control at 62 g/ha ([11]; Preemergence): 100%

— patent US10131652B2, “Pyrimidinyloxy benzene derivatives as herbicides” (E. I. DU PONT DE NEMOURS AND COMPANY, priority 2014, dated 2018)
